# Source: US9738634B2, “Heterocyclic amide compound and herbicide” (SYNGENTA PARTICIPATIONS AG, priority 2013, dated 2017)
# What was measured:
# Type in all cases: in vivo
# Indian mallow = assay: Test Example 3: weedkilling efficacy through soil treatment; K: Indian mallow; details: soil treatment, treatment dosage 315 g/ha
# Source text: (§1) Weedkilling Efficacy Test Through Soil Treatment
# (§2) Sterilized diluvial soil was introduced into 21 cm long, 13 cm wide, 7 cm deep plastic boxes, and seeds of crabgrass, green foxtail, barnyard grass, wild oat, black-grass, Italian ryegrass, common wind-grass, Indian mallow, redroot pigweed, fig-leafed goosefoot, chickweed, catchweed, birds-eye speedwell, corn, soybean, rice, wheat, beet and rapeseed were each spot-sown, and covered with about 1.5 cm of soil. Next, emulsions of compounds of the present invention prepared according to compounding example 2 were diluted with water to give the specified dosages, and applied uniformly onto the soil surface with a small sprayer. The plants were grown by placing the plastic boxes in a greenhouse at 25 to 30° C., and 3 weeks after the pesticide treatment the effect on each type of plant was investigated on the basis of the assessment criteria of test example 1.
# (§3) A: barnyard grass, B: bulrush, C: oval-leafed pondweed, D: crabgrass, E: green foxtail, F: barnyard grass, G: wild oat, H: black-grass, I: Italian ryegrass, J: common wind-grass, K: Indian mallow, L: redroot pigweed, M: fig-leafed goosefoot, N: chickweed, O: catchweed, p: birds-eye speedwell, a: transplanted rice, b: directly sown rice, c: corn, d: soybean, e: wheat, f: beet, g: rapeseed
# (§4) Further, pesticide dosage (g/ha) indicates the concentration regulated such that treatment was with only the stated number of grams (g), when calculated per hectare (ha).
# redroot pigweed = assay: Test Example 3: weedkilling efficacy through soil treatment; L: redroot pigweed; details: soil treatment, treatment dosage 315 g/ha
# Source text: as §1, §2, §3, §4
# beet = assay: Test Example 3: soil treatment, effect on crop; f: beet; details: soil treatment, treatment dosage 315 g/ha
# Source text: as §1, §2, §3, §4
# bulrush [1] = assay: Test Example 2: weedkilling efficacy, growth period weed treatment in the submerged state; B: bulrush; details: treatment dosage 252 g/ha
# In short: (§5)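 First, alluvial soil in pots is flooded to 4 cm and mixed seed is sown. Next, plants grow in a greenhouse at 25 to 30° C until the 1-2 leaf stage. Then diluted emulsion is applied onto the water surface at the given g/ha rate, and injury is assessed after 3 weeks.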
# Italian ryegrass = assay: Test Example 3: weedkilling efficacy through soil treatment; I: Italian ryegrass; details: soil treatment, treatment dosage 315 g/ha
# Source text: as §1, §2, §3, §4
# barnyard grass [2] = assay: Test Example 2: weedkilling efficacy, growth period weed treatment in the submerged state; A: barnyard grass; details: treatment dosage 252 g/ha
# In short: as §5
# bulrush [3] = assay: Test Example 1: weedkilling efficacy, preemergent weed treatment in the submerged state; B: bulrush; details: treatment dosage 252 g/ha
# In short: (§6)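 Alluvial soil in Wagner pots flooded to 4 cm; barnyard grass, bulrush and oval-leafed pondweed seeds sown, then 2.5-leaf rice seedlings transplanted. Same day, emulsified compound diluted in water to set g/ha dosages and applied to water surface; greenhouse 25–30 °C, effect scored by criteria after 3 weeks.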
# oval-leafed pondweed [4] = assay: Test Example 1: weedkilling efficacy, preemergent weed treatment in the submerged state; C: oval-leafed pondweed; details: treatment dosage 252 g/ha
# In short: as §6
# wild oat = assay: Test Example 3: weedkilling efficacy through soil treatment; G: wild oat; details: soil treatment, treatment dosage 315 g/ha
# Source text: as §1, §2, §3, §4
# soybean = assay: Test Example 3: soil treatment, effect on crop; d: soybean; details: soil treatment, treatment dosage 315 g/ha
# Source text: as §1, §2, §3, §4
# green foxtail = assay: Test Example 3: weedkilling efficacy through soil treatment; E: green foxtail; details: soil treatment, treatment dosage 315 g/ha
# Source text: as §1, §2, §3, §4
# fig-leafed goosefoot = assay: Test Example 3: weedkilling efficacy through soil treatment; M: fig-leafed goosefoot; details: soil treatment, treatment dosage 315 g/ha
# Source text: as §1, §2, §3, §4
# directly sown rice = assay: Test Example 3: soil treatment, effect on crop; b: directly sown rice; details: soil treatment, treatment dosage 315 g/ha
# Source text: as §1, §2, §3, §4
# wheat = assay: Test Example 3: soil treatment, effect on crop; e: wheat; details: soil treatment, treatment dosage 315 g/ha
# Source text: as §1, §2, §3, §4
# chickweed = assay: Test Example 3: weedkilling efficacy through soil treatment; N: chickweed; details: soil treatment, treatment dosage 315 g/ha
# Source text: as §1, §2, §3, §4
# transplanted rice = assay: Test Example 1: preemergent weed treatment in the submerged state, effect on crop; a: transplanted rice; details: treatment dosage 252 g/ha
# In short: as §6
# oval-leafed pondweed [5] = assay: Test Example 2: weedkilling efficacy, growth period weed treatment in the submerged state; C: oval-leafed pondweed; details: treatment dosage 252 g/ha
# In short: as §5
# black-grass = assay: Test Example 3: weedkilling efficacy through soil treatment; H: black-grass; details: soil treatment, treatment dosage 315 g/ha
# Source text: as §1, §2, §3, §4
# barnyard grass [6] = assay: Test Example 1: weedkilling efficacy, preemergent weed treatment in the submerged state; A: barnyard grass; details: treatment dosage 252 g/ha
# In short: as §6
# crabgrass = assay: Test Example 3: weedkilling efficacy through soil treatment; D: crabgrass; details: soil treatment, treatment dosage 315 g/ha
# Source text: as §1, §2, §3, §4
# corn = assay: Test Example 3: soil treatment, effect on crop; c: corn; details: soil treatment, treatment dosage 315 g/ha
# Source text: as §1, §2, §3, §4
Structure (SMILES),"K: Indian mallow, weedkilling efficacy grade (Indian mallow)","L: redroot pigweed, weedkilling efficacy grade (redroot pigweed)","f: beet, effect on crop grade (beet)",B (bulrush) weedkilling efficacy grade (bulrush [1]),"I: Italian ryegrass, weedkilling efficacy grade (Italian ryegrass)",A (barnyard grass) weedkilling efficacy grade (barnyard grass [2]),"B: bulrush, weed kill grade (bulrush [3])","C: oval-leafed pondweed, weed kill grade (oval-leafed pondweed [4])","G: wild oat, weedkilling efficacy grade (wild oat)","d: soybean, effect on crop grade (soybean)","E: green foxtail, weedkilling efficacy grade (green foxtail)","M: fig-leafed goosefoot, weedkilling efficacy grade (fig-leafed goosefoot)","b: directly sown rice, effect on crop grade (directly sown rice)","e: wheat, effect on crop grade (wheat)","N: chickweed, weedkilling efficacy grade (chickweed)","a: transplanted rice, effect on crop grade (transplanted rice)",C (oval-leafed pondweed) weedkilling efficacy grade (oval-leafed pondweed [5]),"H: black-grass, weedkilling efficacy grade (black-grass)","A: barnyard grass, weed kill grade (barnyard grass [6])","D: crabgrass, weedkilling efficacy grade (crabgrass)",also measured
Cc1cnc(NC(=O)C(C)(C)N2COCN(c3ccccc3)C2=O)s1 [A-1-08],"1 (weed kill ratio 5% or more, less than 20%)","4 (weed kill ratio 70% or more, less than 90%)",0 (weed kill ratio 5% or less (practically no effect)),"5 (weed kill ratio 90% or more, (practically complete withering))","4 (weed kill ratio 70% or more, less than 90%)","4 (weed kill ratio 70% or more, less than 90%)","5 (weed kill ratio 90% or more, (practically complete withering))","5 (weed kill ratio 90% or more, (practically complete withering))","3 (weed kill ratio 40% or more, less than 70%)",0 (weed kill ratio 5% or less (practically no effect)),"5 (weed kill ratio 90% or more, (practically complete withering))","2 (weed kill ratio 20% or more, less than 40%)","4 (weed kill ratio 70% or more, less than 90%)",0 (weed kill ratio 5% or less (practically no effect)),"2 (weed kill ratio 20% or more, less than 40%)",0 (weed kill ratio 5% or less (practically no effect)),"3 (weed kill ratio 40% or more, less than 70%)","5 (weed kill ratio 90% or more, (practically complete withering))","5 (weed kill ratio 90% or more, (practically complete withering))","5 (weed kill ratio 90% or more, (practically complete withering))","c: corn, effect on crop grade (corn): 1 (weed kill ratio 5% or more, less than 20%)"
CC(C)(C(=O)Nc1cc(C(F)(F)F)cc(Cl)n1)N1COCN(c2ccccc2)C1=O [A-2-28],"4 (weed kill ratio 70% or more, less than 90%)","4 (weed kill ratio 70% or more, less than 90%)","5 (weed kill ratio 90% or more, (practically complete withering))","5 (weed kill ratio 90% or more, (practically complete withering))","5 (weed kill ratio 90% or more, (practically complete withering))","5 (weed kill ratio 90% or more, (practically complete withering))","5 (weed kill ratio 90% or more, (practically complete withering))","5 (weed kill ratio 90% or more, (practically complete withering))","5 (weed kill ratio 90% or more, (practically complete withering))","3 (weed kill ratio 40% or more, less than 70%)","5 (weed kill ratio 90% or more, (practically complete withering))","5 (weed kill ratio 90% or more, (practically complete withering))","5 (weed kill ratio 90% or more, (practically complete withering))","1 (weed kill ratio 5% or more, less than 20%)","5 (weed kill ratio 90% or more, (practically complete withering))","2 (weed kill ratio 20% or more, less than 40%)","5 (weed kill ratio 90% or more, (practically complete withering))","5 (weed kill ratio 90% or more, (practically complete withering))","5 (weed kill ratio 90% or more, (practically complete withering))","5 (weed kill ratio 90% or more, (practically complete withering))","c: corn, effect on crop grade (corn): 1 (weed kill ratio 5% or more, less than 20%)"
Cc1cccc(NC(=O)C(C)(C)N2COCN(c3ccccc3)C2=O)n1 [A-2-38],"2 (weed kill ratio 20% or more, less than 40%)","5 (weed kill ratio 90% or more, (practically complete withering))","4 (weed kill ratio 70% or more, less than 90%)","5 (weed kill ratio 90% or more, (practically complete withering))","5 (weed kill ratio 90% or more, (practically complete withering))","3 (weed kill ratio 40% or more, less than 70%)","5 (weed kill ratio 90% or more, (practically complete withering))","4 (weed kill ratio 70% or more, less than 90%)","5 (weed kill ratio 90% or more, (practically complete withering))","2 (weed kill ratio 20% or more, less than 40%)","5 (weed kill ratio 90% or more, (practically complete withering))","4 (weed kill ratio 70% or more, less than 90%)","5 (weed kill ratio 90% or more, (practically complete withering))",0 (weed kill ratio 5% or less (practically no effect)),"4 (weed kill ratio 70% or more, less than 90%)",0 (weed kill ratio 5% or less (practically no effect)),"3 (weed kill ratio 40% or more, less than 70%)","5 (weed kill ratio 90% or more, (practically complete withering))","5 (weed kill ratio 90% or more, (practically complete withering))","5 (weed kill ratio 90% or more, (practically complete withering))","c: corn, effect on crop grade (corn): 2 (weed kill ratio 20% or more, less than 40%)"
